The results in this text go back to ChEMBL document CHEMBL1142218, “Synthesis, anti-HIV activity, and resistance profiles of ribose modified nucleoside phosphonates” (Bioorg Med Chem Lett, 2007).

Where only a bound is given, the exact number is not on record here.

Series [1] concerns Human immunodeficiency virus. The series can be described thus: Antiviral activity against HIV with reverse transcriptase K65R mutation in MT-2 cells assessed as fold resistance relative to wild type.
The nature of series [2]: Inhibition of wild type HIV reverse transcriptase. More on the design: species or system Human immunodeficiency virus.
In series [3] the test system is Human immunodeficiency virus. The series can be described thus: Antiviral activity against HIV with reverse transcriptase 6TAMs mutation in MT-2 cells assessed as fold resistance relative to wild type.
Series [4] can be described thus: Cytotoxicity against human MT2 cells. In kind it is cell-based.
For series [5], the system named is Human immunodeficiency virus. The series can be described thus: Antiviral activity against HIV with reverse transcriptase M184V mutation in MT-2 cells assessed as fold resistance relative to wild type.
In series [6] the test system is Human immunodeficiency virus. The series can be described thus: Antiviral activity against wild type HIV. Format: functional, organism-based. The conditions noted are these: Human immunodeficiency virus 1.

The IC50 is the concentration at which inhibition is half-maximal. High values mean lower potency, low ones higher potency. One may read the CC50 as the concentration at which the toxic effect on the cells reaches its halfway point. A lower CC50 goes with harm at low concentration. What is called EC50 is the midpoint of the concentration-response curve. On to `Cc1cn([C@H]2C=C[C@@H](OCP(=O)(O)O)O2)c(=O)[nH]c1=O`, for which the Activity is 5.2 in series [1], 12.7 in series [3] and 1.1 in series [5]. Also, 0.39 µM corresponded to half-maximal inhibition in series [2] (IC50). Besides, the CC50 in series [4] was above 1000 µM. For the same compound, a half-maximal effect in series [6] (EC50) was put at 26 µM.
`Cc1cn([C@H]2CC[C@@H](OCP(=O)(O)O)O2)c(=O)[nH]c1=O`: the IC50 in series [2] came to 5.4 µM. In addition, the EC50 in series [6] is above 200 µM.
Compound `O=c1ccn([C@H]2C=C[C@@H](OCP(=O)(O)OP(=O)(O)OP(=O)(O)O)O2)c(=O)[nH]1` returned an IC50 in series [2] of 0.55 µM.
`Nc1ncnc2c1ncn2[C@H]1C=C[C@@H](OCP(=O)(O)OP(=O)(O)OP(=O)(O)O)O1` came in with a half-maximal inhibitory concentration (IC50) in series [2] of 0.14 µM.
Compound `O=c1[nH]c(=O)n([C@H]2C=C[C@@H](OCP(=O)(O)O)O2)cc1F` showed an EC50 in series [6] above 200 µM.
With `O=c1[nH]c(=O)n([C@H]2C=C[C@@H](OCP(=O)(O)O)O2)cc1Cl`, the Activity in series [1] is 6.7; in series [3] it was above 10; in series [5], 0.8. In series [4], this compound yielded a CC50 of 413 µM. This compound gave a 50% effective concentration (EC50) in series [6] of 28.5 µM.
On to `Nc1ccn([C@H]2C=C[C@@H](OCP(=O)(O)O)O2)c(=O)n1`, for which, in series [6], the EC50 was above 200 µM.
With `Nc1ncnc2c1ncn2[C@H]1CO[C@@H](OCP(=O)(O)O)C1`, the Activity in series [1] was 2.2; in series [3], 3.2; in series [5] it was 11. For the same compound, the IC50 in series [2] came out at 0.32 µM. This compound also showed a 50% cytotoxic concentration (CC50) in series [4] of 863 µM. For the same compound, it took 9.5 µM to reach a half-maximal effect in series [6] (EC50).
Consider `O=c1ccn([C@H]2CC[C@@H](OCP(=O)(O)O)O2)c(=O)[nH]1`, for which the EC50 in series [6] is above 200 µM.
Turning to `Nc1ncnc2c1ncn2[C@H]1CC[C@@H](OCP(=O)(O)O)O1`, the results for the Activity in series [1], in series [3] and in series [5] were 4.9, 3.4 and 1.1, respectively. In addition, the IC50 in series [2] turned out to be 4.1 µM. Further, in series [4], the CC50 was above 1000 µM. For the same compound, in series [6], the EC50 stood at 12 µM.
In the case of `O=c1[nH]c(=O)n([C@H]2C=C[C@@H](OCP(=O)(O)O)O2)cc1Br`, the results for the Activity in series [1], in series [3] and in series [5] were 7.5, above 10 and 1.3, respectively. Also, in series [4], half-maximal cytotoxicity (CC50) was put at 935 µM. Also, the EC50 in series [6] was found to be 15 µM.
`Cc1cn([C@H]2C=C[C@@H](OCP(=O)(O)OP(=O)(O)OP(=O)(O)O)O2)c(=O)[nH]c1=O` showed an IC50 in series [2] of 0.06 µM.
On the same count and under the same terms, as for `Nc1ncnc2c1ncn2[C@H]1CC[C@@H](OCP(=O)(O)OP(=O)(O)OP(=O)(O)O)O1`, the figure is 0.26 µM.
On to `Nc1ncnc2c1ncn2[C@H]1C=C[C@@H](OCP(=O)(O)O)O1`, for which the Activity is 2.9 in series [1], 2.9 in series [3] and 0.9 in series [5]. Moreover, in series [2], it took 0.6 µM to reach half-maximal inhibition (IC50). Further, the CC50 in series [4] is above 1000 µM. The compound further yielded an EC50 in series [6] of 2.1 µM.
As to `Nc1ncnc2c1ncn2[C@H]1C=C[C@@H](OCP(=O)(O)O)C1`, the concentration for a half-maximal effect (EC50) in series [6] was determined as 51.7 µM.
In series [2], `O=c1ccn([C@H]2C=C[C@@H](OCP(=O)(O)O)O2)c(=O)[nH]1` came in with an IC50 of 5.7 µM. In series [4], this compound showed a CC50 above 1000 µM. In series [6], this compound showed an EC50 above 200 µM.
As to `Nc1nc(NC2CC2)c2ncn([C@H]3C=C[C@@H](CO)C3)c2n1` (single isomer, unassigned) [ABACAVIR], the Activity in series [1] is recorded as 3.8; in series [3], 5.7; in series [5], 7.1. This compound also gave an IC50 in series [2] of 0.13 µM. This compound displayed a CC50 in series [4] of 190 µM. The compound further displayed an EC50 in series [6] of 0.32 µM.
As to `C[C@H](Cn1cnc2c(N)ncnc21)OCP(=O)(O)O` [TENOFOVIR ANHYDROUS], the results for the Activity in series [1], in series [3] and in series [5] were 4.3, 8.8 and 0.7, respectively. In addition, in series [2], the IC50 was determined as 0.38 µM. The compound also yielded a cytotoxic concentration (CC50) in series [4] above 1000 µM. For the same compound, the EC50 in series [6] worked out at 3.6 µM.
